Laboratory results taken from patent US20230062100A1, “SUBSTITUTED AMINOQUINOLONES AS DGKALPHA INHIBITORS FOR IMMUNE ACTIVATION” (Bayer Aktiengesellschaft, priority 2019, published 2023).

Each compound was assayed against DGKα (Homo sapiens, UniProt P23743) (assay: Human DGKα kinase activity inhibition assay (ADP-Glo)). Conditions: in vitro human DGKα kinase activity inhibition assay.
Chain of DGKα (P23743 with tags, fused parts or gaps): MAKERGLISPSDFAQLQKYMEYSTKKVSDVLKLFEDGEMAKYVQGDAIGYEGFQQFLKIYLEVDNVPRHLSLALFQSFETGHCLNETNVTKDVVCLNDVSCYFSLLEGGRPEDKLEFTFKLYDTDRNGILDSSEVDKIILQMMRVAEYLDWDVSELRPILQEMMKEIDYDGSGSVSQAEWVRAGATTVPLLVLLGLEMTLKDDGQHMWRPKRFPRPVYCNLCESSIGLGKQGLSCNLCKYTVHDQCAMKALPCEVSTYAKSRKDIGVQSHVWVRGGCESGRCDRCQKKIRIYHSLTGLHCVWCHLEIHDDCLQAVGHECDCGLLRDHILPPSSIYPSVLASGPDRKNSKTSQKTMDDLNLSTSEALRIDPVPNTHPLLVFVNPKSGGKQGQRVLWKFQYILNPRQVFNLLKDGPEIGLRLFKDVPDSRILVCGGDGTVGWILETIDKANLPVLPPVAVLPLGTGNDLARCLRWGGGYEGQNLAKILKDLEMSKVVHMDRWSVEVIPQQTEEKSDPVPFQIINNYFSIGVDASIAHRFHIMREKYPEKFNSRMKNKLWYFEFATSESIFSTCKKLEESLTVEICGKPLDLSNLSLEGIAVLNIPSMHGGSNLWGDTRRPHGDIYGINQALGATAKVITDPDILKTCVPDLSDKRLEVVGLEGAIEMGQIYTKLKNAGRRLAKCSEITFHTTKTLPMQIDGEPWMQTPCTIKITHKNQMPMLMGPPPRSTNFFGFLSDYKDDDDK
Type: biochemical
Method: Human DGKα inhibitory activity of compounds of the present invention was quantified employing the human DGKα kinase activity assay as described in the following paragraphs. In essence, the enzyme activity was measured by quantification of the adenosine-di-phosphate (ADP) generated as a co-product of the enzyme reaction via the “ADP-Glo™ Kinase Assay” kit from the company Promega. This detection system works as follows: In a first step the ATP not consumed in the kinase reaction is quantitatively converted to cAMP employing an adenylate cyclase (“ADP-Glo-reagent”), then the adenylate cyclase is stopped and the ADP generated in the kinase reaction converted to ATP, which subsequently generates in a luciferase-based reaction a glow-luminescence signal (“Kinase Detection Reagent”). C-terminally FLAG-tagged, recombinant full-length human DGKα (expressed in baculovirus infected insect cells, purified using anti-Flag pulldown and size exclusion chromatography as described below, DGKα_hu_1) was used as enzyme. As substrate for the kinase 1,2-dioleoyl-sn-glycerol, reconstituted in octyl-β-D-glucopyranoside micelles, was used. For the preparation of the micelles, 1 volume of a 16.1 mM solution of 1,2-dioleoyl-sn-glycerol (Avanti, Cat. #O8001-25G) in chloroform was slowly evaporated using a nitrogen stream. Subsequently, 22.55 volumes of a 510 mM solution of octyl-β-D-glucopyranoside (Sigma-Aldrich, Cat. #O8001-10G) in 50 mM MOPS buffer (pH 7.4) were added, and the mixture was sonicated in an ultrasonic bath for 20 s. Then 35 volumes of 50 mM MOPS buffer (pH 7.4) were added to yield a solution of 0.28 mM 1,2 dioleoyl-sn-glycerol and 200 mM octyl-β-D-glucopyranoside, which was aliquoted, flash-frozen in liquid nitrogen, and stored at −20° C. until use. For each experiment, a fresh aliquot was quickly thawed and diluted 24-fold with aqueous assay buffer (described below) containing 95.7 μM adenosine triphosphate (Promega) to yield a 1.67-fold concentrated substrate solution. For the assay 50 nl of a 100-fold concentrated solution of the test compound in dimethyl sulfoxide (DMSO, Sigma) was pipetted into either a white 1536-well or a white low-volume 384-well microtiter plate (both Greiner Bio-One, Frickenhausen, Germany). […] The concentration of DGK a was adjusted depending of the activity of the enzyme lot and was chosen appropriate to have the assay in the linear range, a typical concentration is about 0.1 nM. The reaction was stopped by the addition of 2.5 μl of “ADP-Glo-reagent” (1 to 1.5 diluted with water) and the resulting mixture was incubated at 22° C. for 1 h to convert the ATP not consumed in the kinase reaction completely to cAMP. […] The amount of emitted light was taken as a measure for the amount of ADP generated and thereby for the activity of the DGKα.
With `Cn1c(=O)c(C(N)=O)c(N2CCC(Oc3ccc(OC(F)(F)F)cc3)CC2)c2ccc(N3CCCC3=O)cc21` [Example 96, 1-methyl-2-oxo-7-(2-oxopyrrolidin-1-yl)-4-{4-[4-(trifluoromethoxy)phenoxy]piperidin-1-yl}-1,2-dihydroquinoline-3-carboxamide] the IC50 was 12 nM. With `Cn1c(=O)c(C#N)c(N2CCC(Oc3cccc(OC(F)(F)F)c3)CC2)c2ccccc21` [Example 38, 1-methyl-2-oxo-4-{4-[3-(trifluoromethoxy)phenoxy]piperidin-1-yl}-1,2-dihydroquinoline-3-carbonitrile] the IC50 was 18 nM. `Cn1c(=O)c(C#N)c(N2CCC(Oc3ccc(OC(F)(F)F)cc3)CC2)c2ccc(N3CCCC3=O)cc21` [Example 82, 1-methyl-2-oxo-7-(2-oxopyrrolidin-1-yl)-4-{4-[4-(trifluoromethoxy)phenoxy]piperidin-1-yl}-1,2-dihydroquinoline-3-carbonitrile] was tested, and the IC50 was 12 nM. Work on `COc1ccccc1OC1CCN(c2c(C(N)=O)c(=O)n(C)c3ccc(C)cc23)CC1` [Example 162] yielded an IC50 of 57 nM. Compound `Cn1c(=O)c(C#N)c(N2CCC(Oc3ccccc3C#N)CC2)c2ccccc21` [Example 34, 4-[4-(2-cyanophenoxy)piperidin-1-yl]-1-methyl-2-oxo-1,2-dihydroquinoline-3-carbonitrile] has an IC50 of 9 nM. For `Cc1cccc(COC2CCN(c3c(C(N)=O)c(=O)n(C)c4ccccc34)CC2)c1` [Example 123, 1-methyl-4-{4-[(3-methylphenyl)methoxy]piperidin-1-yl}-2-oxo-1,2-dihydroquinoline-3-carboxamide], the IC50 was 14 nM. Compound `Cn1c(=O)c(C#N)c(N2CCC(Sc3ccccc3)CC2)c2cc(Br)ccc21` [Example 140, 6-bromo-1-methyl-2-oxo-4-[4-(phenylsulfanyl)piperidin-1-yl]-1,2-dihydroquinoline-3-carbonitrile] has an IC50 of 1.4 nM. With `CN1CCCN(c2ccc(OC3CCN(c4c(C#N)c(=O)n(C)c5ccccc45)CC3)cc2)C1=O` [Example 21, 1-methyl-4-{4-[4-(3-methyl-2-oxo-1,3-diazinan-1-yl)phenoxy]piperidin-1-yl}-2-oxo-1,2-dihydroquinoline-3-carbonitrile] the IC50 was 119 nM. `Cn1cc(-c2ccc(OC3CCCN(c4c(C#N)c(=O)n(C)c5ccccc45)CC3)cc2)cn1` (racemic) [Example 105, (rac)-1-methyl-4-{4-[4-(1-methyl-1H-pyrazol-4-yl)phenoxy]azepan-1-yl}-2-oxo-1,2-dihydroquinoline-3-carbonitrile] was tested, and the IC50 was 33 nM. Compound `Cn1c(=O)c(C#N)c(N2CCC(Oc3ccc(F)cc3)CC2)c2ccc(Br)cc21` [Example 56, 7-bromo-4-[4-(4-fluorophenoxy)piperidin-1-yl]-1-methyl-2-oxo-1,2-dihydroquinoline-3-carbonitrile] has an IC50 of 9.9 nM. Work on `Cn1c(=O)c(C#N)c(N2CCC(Oc3ccc(OC(F)(F)F)cc3)CC2)c2cccc(C#N)c21` [Example 132, 1-methyl-2-oxo-4-{4-[4-(trifluoromethoxy)phenoxy]piperidin-1-yl}-1,2-dihydroquinoline-3,8-dicarbonitrile] yielded an IC50 of 536 nM. Compound `Cn1c(=O)c(C#N)c(N2CCC(Cc3ccc(C#N)cc3)CC2)c2ccccc21` [Example 95, 4-{4-[(4-cyanophenyl)methyl]piperidin-1-yl}-1-methyl-2-oxo-1,2-dihydroquinoline-3-carbonitrile] has an IC50 of 15 nM. `Cn1c(=O)c(C#N)c(N2CCC(Oc3ccc(C(F)(F)F)cc3)CC2)c2ccc(C3CC3)cc21` [Example 87, 7-cyclopropyl-1-methyl-2-oxo-4-{4-[4-(trifluoromethyl)phenoxy]piperidin-1-yl}-1,2-dihydroquinoline-3-carbonitrile] gave an IC50 of 40 nM. Work on `Cn1c(=O)c(C#N)c(N2CCC(Oc3ccc(OC(F)(F)F)cc3)CC2)c2cc(O)ccc21` [Example 167, 6-hydroxy-1-methyl-2-oxo-4-{4-[4-(trifluoromethoxy)phenoxy]piperidin-1-yl}-1,2-dihydroquinoline-3-carbonitrile] yielded an IC50 of 0.94 nM. Compound `CCOC(=O)c1ccc(OC2CCN(c3c(C#N)c(=O)n(C)c4ccccc34)CC2)cc1` [Example 12, ethyl 4-{[1-(3-cyano-1-methyl-2-oxo-1,2-dihydroquinolin-4-yl)piperidin-4-yl]oxy}benzoate] has an IC50 of 12 nM. Compound `Cn1c(=O)c(C(N)=O)c(N2CCC(OCc3cccc(F)c3)CC2)c2ccccc21` [Example 128, 4-{4-[(3-fluorophenyl)methoxy]piperidin-1-yl}-1-methyl-2-oxo-1,2-dihydroquinoline-3-carboxamide] has an IC50 of 29 nM. In the case of `Cc1ccc(COC2CCN(c3c(C#N)c(=O)n(C)c4ccccc34)CC2)cc1` [Example 107, 1-methyl-4-{4-[(4-methylphenyl)methoxy]piperidin-1-yl}-2-oxo-1,2-dihydroquinoline-3-carbonitrile], the IC50 is reported as 7.2 nM. For `Cn1c(=O)c(C#N)c(N2CCC(Oc3cccc(Cl)c3)CC2)c2ccc(Br)cc21` [Example 60, 7-bromo-4-[4-(3-chlorophenoxy)piperidin-1-yl]-1-methyl-2-oxo-1,2-dihydroquinoline-3-carbonitrile], the IC50 was 27 nM. `Cn1c(=O)c(C#N)c(N2CCC(Oc3ccc(OC(F)(F)F)cc3)CC2)c2cccc(P(C)(C)=O)c21` [Example 135, 8-(dimethylphosphoryl)-1-methyl-2-oxo-4-{4-[4-(trifluoromethoxy)phenoxy]piperidin-1-yl}-1,2-dihydroquinoline-3-carbonitrile] gave an IC50 of 1370 nM. `Cn1c(=O)c(C#N)c(N2CCC(Oc3cccc(Cl)c3)CC2)c2ccccc21` [Example 9, 4-[4-(3-chlorophenoxy)piperidin-1-yl]-1-methyl-2-oxo-1,2-dihydroquinoline-3-carbonitrile] was tested, and the IC50 was 9.1 nM. `Cc1ccccc1COC1CCN(c2c(C#N)c(=O)n(C)c3ccccc23)CC1` [Example 114, 1-methyl-4-{4-[(2-methylphenyl)methoxy]piperidin-1-yl}-2-oxo-1,2-dihydroquinoline-3-carbonitrile] gave an IC50 of 16 nM. Work on `Cn1c(=O)c(C(N)=O)c(N2CCC(Oc3ccc(Cl)cc3)CC2)c2ccccc21` [Example 50, 4-[4-(4-chlorophenoxy)piperidin-1-yl]-1-methyl-2-oxo-1,2-dihydroquinoline-3-carboxamide] yielded an IC50 of 3.1 nM. `Cn1c(=O)c(C#N)c(N2CCC(COc3ccc(Cl)cc3)CC2)c2ccccc21` [Example 116, 4-{4-[(4-chlorophenoxy)methyl]piperidin-1-yl}-1-methyl-2-oxo-1,2-dihydroquinoline-3-carbonitrile] gave an IC50 of 6.4 nM. Work on `Cn1c(=O)c(C#N)c(N2CCC(Oc3ccc(Br)cc3)CC2)c2ccccc21` [Example 8, 4-[4-(4-bromophenoxy)piperidin-1-yl]-1-methyl-2-oxo-1,2-dihydroquinoline-3-carbonitrile] yielded an IC50 of 13 nM. In the case of `CCCCOc1ccc2c(N3CCC(Sc4ccccc4)CC3)c(C#N)c(=O)n(C)c2c1` [Example 69, 7-butoxy-1-methyl-2-oxo-4-[4-(phenylsulfanyl)piperidin-1-yl]-1,2-dihydroquinoline-3-carbonitrile], the IC50 is reported as 507 nM. `Cc1ccc2c(c1)c(N1CCC(Oc3ccccc3Cl)CC1)c(C#N)c(=O)n2C` [Example 151, 4-[4-(2-chlorophenoxy)piperidin-1-yl]-1,6-dimethyl-2-oxo-1,2-dihydroquinoline-3-carbonitrile] was tested, and the IC50 was 60 nM. Compound `Cc1ccc2c(c1)c(N1CCC(Sc3ccccc3)CC1)c(C#N)c(=O)n2C` [Example 142, 1,6-dimethyl-2-oxo-4-[4-(phenylsulfanyl)piperidin-1-yl]-1,2-dihydroquinoline-3-carbonitrile] has an IC50 of 2 nM. Work on `Cn1c(=O)c(C(N)=O)c(N2CCC(Oc3ccc(OC(F)(F)F)cc3)CC2)c2ccc(F)cc21` [Example 99, 7-fluoro-1-methyl-2-oxo-4-{4-[4-(trifluoromethoxy)phenoxy]piperidin-1-yl}-1,2-dihydroquinoline-3-carboxamide] yielded an IC50 of 1.2 nM. In the case of `Cn1c(=O)c(C#N)c(N2CCC(Sc3ccccc3)CC2)c2ccc(N3CCCC3=O)cc21` [Example 83, 1-methyl-2-oxo-7-(2-oxopyrrolidin-1-yl)-4-[4-(phenylsulfanyl)piperidin-1-yl]-1,2-dihydroquinoline-3-carbonitrile], the IC50 is reported as 14 nM. In the case of `Cc1cccc(COC2CCN(c3c(C#N)c(=O)n(C)c4ccccc34)CC2)c1` [Example 108, 1-methyl-4-{4-[(3-methylphenyl)methoxy]piperidin-1-yl}-2-oxo-1,2-dihydroquinoline-3-carbonitrile], the IC50 is reported as 10 nM.
